Laboratory results taken from patent publication US4680304A, “Feed compositions containing 2-(α-pyridyl)-Δ^2 -heterocyclic compounds” (SmithKline Beckman Corporation, priority 1985, dated 1987).
“And” between values parts separate entries of the source, which are not always exact repeats. Equal values may be shown once.

How the values were obtained:
[1] = system: fermentation in the digestive tract (swine ileal/cecal inoculum); assay: In vitro swine procedure (fistula test; incubation of filtered ileal/cecal inoculum); set-up: species or system swine (Yorkshire barrow); conditions: 5 hours at 37°
[2] = Chick growth study; type: in vivo, broiler chicks
Experimental: 512 day old broiler chicks, selected for weight, health and sex, are housed in an environmentally controlled room with temperature at 37.7° and humidity at 40%. Chicks are fed ad libitum. Water is offered ad libitum. A corn or, preferably rye, basal ration is fed during the acclimation period (days 1 and 2). It is, then, mixed with the compound under test or used as a control on days 3-17. Either 8 or 16 chicks are used for each test or control group.

Cc1nc(-c2ccccn2)no1
GLU (glucose) ([1]; 166.67 ppm): 113 % of control values
LYS (lysine) ([1]; 166.67 ppm): 110 % of control values
Feed/Gain (3-17 day) ([2]; 8.5 ppm in feed): 99.2 % of Control
Weight (17 day) ([2]; 8.5 ppm in feed): 102.3 % of Control

c1ccc(C2=NCCN2)nc1 [2-(2-Pyridyl)-imidazoline]
Feed/Gain (3-17 day) ([2]; 50 ppm in feed): 93.0 % of Control
Weight (17 day) ([2]; 50 ppm in feed): 106.2 % of Control

NC(=NO)c1ccccn1 [2-Amidoximopyridine]
LAC (L-lactic acid) ([1]; 166.67 ppm): 111 % of control values
LYS (lysine) ([1]; 166.67 ppm): 99 % of control values
VFA (total of volatile fatty acids) ([1]; 166.67 ppm): 98 % of control values
Feed/Gain (3-17 day) ([2]; 10 ppm in feed): 97.0 % of Control and 101.2 % of Control
Weight (17 day) ([2]; 10 ppm in feed): 108.5 % of Control and 99.2 % of Control
Feed/Gain (3-17 day) ([2]; 50 ppm in feed): 97.3 % of Control
Weight (17 day) ([2]; 50 ppm in feed): 103.0 % of Control

CC1(O)CC(C(N)=O)N=C1c1ncccc1O (stereo not shown) [3,4-dihydro-4-hydroxy-5-(3-hydroxy-2-pyridinyl)-4-methyl-2H-pyrrole-2-carboxamide]
LYS (lysine) ([1]; 1.67 ppm): 75 % of control values
LYS (lysine) ([1]; 16.67 ppm): 82 % of control values
VFA (total of volatile fatty acids) ([1]; 16.67 ppm): 103 % of control values
LYS (lysine) ([1]; entry (a), 166.7 ppm): 136 % of control values
VFA (total of volatile fatty acids) ([1]; entry (a), 166.7 ppm): 26 % of control values
LYS (lysine) ([1]; entry (b), 166.7 ppm): 142 % of control values
VFA (total of volatile fatty acids) ([1]; entry (b), 166.7 ppm): 43 % of control values
Feed/Gain (3-17 day) ([2]; 4.5 ppm in feed): 98.4 % of Control
Weight (17 day) ([2]; 4.5 ppm in feed): 101.0 % of Control
Feed/Gain (3-17 day) ([2]; 25 ppm in feed): 92.6 % of Control and 99.9 % of Control
Weight (17 day) ([2]; 25 ppm in feed): 109.4 % of Control and 108.5 % of Control

CC1(C)NN=C(c2ccccn2)N1 [5,5-Dimethyl-3-(2'-pyridyl)-4,5-dihydro-1H-triazole]
GLU (glucose) ([1]; 166.67 ppm): 105 % of control values
Feed/Gain (3-17 day) ([2]; 9 ppm in feed): 97.2 % of Control
Weight (17 day) ([2]; 9 ppm in feed): 103.5 % of Control
Feed/Gain (3-17 day) ([2]; 50 ppm in feed): 103.1 % of Control
Weight (17 day) ([2]; 50 ppm in feed): 97.7 % of Control

COC(=O)C1(C)NN=C(c2ccccn2)N1 (stereo not shown) [Methyl 5-methyl-3-(2'-pyridyl)-4,5-dihydro-1H-triazole-5-carboxylate]
Feed/Gain (3-17 day) ([2]; 50 ppm in feed): 91.0 % of Control
Weight (17 day) ([2]; 50 ppm in feed): 108.1 % of Control

Virginiamycin [reference compound]
GLU (glucose) ([1]; 1.67 ppm): 131 % of control values
LYS (lysine) ([1]; 1.67 ppm): 134 % of control values
VFA (total of volatile fatty acids) ([1]; 1.67 ppm): 147 % of control values
GLU (glucose) ([1]; 16.67 ppm): 153 % of control values
LYS (lysine) ([1]; 16.67 ppm): 212 % of control values
VFA (total of volatile fatty acids) ([1]; 16.67 ppm): 85 % of control values
GLU (glucose) ([1]; 166.67 ppm): 153 % of control values
LYS (lysine) ([1]; 166.67 ppm): 289 % of control values
VFA (total of volatile fatty acids) ([1]; 166.67 ppm): 39 % of control values
Feed/Gain (3-17 day) ([2]; 10 ppm in feed (rye)): 96.5 % of Control
Weight (17 day) ([2]; 10 ppm in feed (rye)): 107.1 % of Control
Feed/Gain (3-17 day) ([2]; 10 ppm in feed): 100.4 % of Control
Weight (17 day) ([2]; 10 ppm in feed): 97.7 % of Control
Feed/Gain (3-17 day) ([2]; 50 ppm in feed): 88.5 % of Control
Weight (17 day) ([2]; 50 ppm in feed): 127.8 % of Control
